Assay results reported in publication PMC10450872 (ACS Central Science, 2023).
Where “and” joins values, the source holds several entries; their conditions need not be identical. Equal values may be shown once.

How the values were obtained:
[1] = biological target: T1, hKOR (OPRK1) (Homo sapiens, UniProt P41145); test: cell-based; conditions: for Emax: CHO, read-out: cAMP Emax
T1 construct: 3HA (triple haemagglutinin tag); expressed in transfected cells

[2] = biological target: T2, hKOR (Homo sapiens, UniProt P41145); test: cell-based; conditions: for Emax: read-out: βarrestin2 Emax; for EC50: βarrestin2 pEC50
T2 construct: β-galactosidase enzyme fragment for EFC (ProLink tag of the PathHunter system; name and presence on the receptor from own knowledge); host or cells: U2OS-β-arrestin2-EFC-hKOR (PathHunter) cells
T2 sequence (P41145 whole entry, the tested form may be a part): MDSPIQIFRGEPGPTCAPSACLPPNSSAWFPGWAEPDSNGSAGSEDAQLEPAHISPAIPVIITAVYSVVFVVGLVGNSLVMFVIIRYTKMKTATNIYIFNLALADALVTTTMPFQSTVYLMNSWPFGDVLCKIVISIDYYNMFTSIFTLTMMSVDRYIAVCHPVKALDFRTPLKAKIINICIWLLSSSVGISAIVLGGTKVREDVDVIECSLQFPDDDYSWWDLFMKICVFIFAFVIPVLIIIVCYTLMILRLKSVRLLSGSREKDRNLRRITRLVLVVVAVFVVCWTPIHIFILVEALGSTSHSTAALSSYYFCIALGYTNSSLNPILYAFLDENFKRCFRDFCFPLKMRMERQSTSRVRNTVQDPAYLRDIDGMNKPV

[3] = biological target: T2, hKOR; assay type: cell-based
[4] = biological target: T3, human MOR (OPRM1) (Homo sapiens, UniProt P35372); assay type: cell-based
T3 construct: expressed in transfected cells
T3 sequence (P35372 whole entry): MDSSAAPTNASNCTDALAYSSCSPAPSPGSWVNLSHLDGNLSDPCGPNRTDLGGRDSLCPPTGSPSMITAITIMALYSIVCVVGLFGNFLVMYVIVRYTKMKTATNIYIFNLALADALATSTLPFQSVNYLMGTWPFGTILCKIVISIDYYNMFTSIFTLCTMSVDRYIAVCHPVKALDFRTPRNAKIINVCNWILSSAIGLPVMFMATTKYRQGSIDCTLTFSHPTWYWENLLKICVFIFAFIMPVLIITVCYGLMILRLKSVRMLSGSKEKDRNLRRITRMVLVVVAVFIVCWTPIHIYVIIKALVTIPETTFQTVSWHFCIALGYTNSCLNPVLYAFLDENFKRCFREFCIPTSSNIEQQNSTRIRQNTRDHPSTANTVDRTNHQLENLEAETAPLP

[5] = mean EC50 of inhibition of forskolin-stimulated cAMP accumulation via KOR
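Throughout, for Emax: 100% = maximum response to 10 µM U69,593.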

T1 sequence (P41145 whole entry): as the sequence (P41145 whole entry, the tested form may be a part) above

| Structure (SMILES) | Emax [1] [%] | EC50 ([1]; cAMP pEC50) [nM] | EC50 [1, 5] [nM] | Emax [2] [%] | EC50 [2] [nM] | Bias Factor [3] | ΔΔLogτ/KA (cAMP/βarr2) [3] | cAMP Emax [1] | βarrestin2 Emax [2] | increase of potency on replacement of the 3-furyl [1] [fold] | selectivity for KOR over MOR [4] |
| --- | --- | --- | --- | --- | --- | --- | --- | --- | --- | --- | --- |
| COC(=O)[C@@H]1C[C@H](OC(C)=O)C(=O)[C@@H]2[C@H]3CC=CC(=O)[C@@H]3CC[C@]21C [17a] | 96 | 10700 | > 10000 | – | – | – | – | – | – | – | – |
| COC(=O)[C@@H]1C[C@H](OC(C)=O)C(=O)[C@@H]2[C@H]3C[C@@H](c4cccc(O)c4)CC(=O)[C@@H]3CC[C@]21C [22a] | 97 | 309 | – | 81 | 5890 | 0.72 | 1.397 | – | – | – | – |
| COC(=O)[C@@H]1C[C@H](OC(C)=O)C(=O)[C@@H]2[C@H]3C[C@H](c4cccc(O)c4)CC(=O)[C@@H]3CC[C@]21C [22b] | 95 | 912 | – | – | – | – | – | – | – | – | – |
| COC(=O)[C@@H]1C[C@H](OC(C)=O)C(=O)[C@@H]2[C@H]3C[C@@H](c4ccccc4)CC(=O)[C@@H]3CC[C@]21C [24a] | 98 | 9.12 | – | 120 | 219 | 0.39 | 2.554 | – | – | – | – |
| COC(=O)[C@@H]1C[C@H](OC(C)=O)C(=O)[C@@H]2[C@H]3C[C@H](c4ccccc4)CC(=O)[C@@H]3CC[C@]21C [24b] | 100 | 63.1 | – | 109 | 891 | 0.32 | 3.153 | – | – | – | – |
| C#CC1(O)CC(c2ccccc2)CC2C1CCC1(C)C(C(=O)OC)CC(OC(C)=O)C(=O)C21 (centres unmarked) [40a] | – | – | 6.9 | – | 741 | 9.83 and 7.4–9.8 | 0.102 | 105 | 80 | – | – |
| C#CC1(O)CC(c2ccccc2)CC2C1CCC1(C)C(C(=O)OC)CC(OC(C)=O)C(=O)C21 (centres unmarked) [40b] | 104 | – | 4.4 | 92 | 794 | 7.44 and 7.4–9.8 | 0.134 | – | – | – | – |
| COC(=O)C1CC(OC(C)=O)C(=O)C2C3CC(c4ccoc4)CC(O)C3CCC12C (centres unmarked) [41a] | – | 5.01 | 5.1 | – | 123 | 1.33 | 0.754 | 102 | 85 | – | – |
| COC(=O)C1CC(OC(C)=O)C(=O)C2C3CC(c4ccoc4)CC(O)C3CCC12C (centres unmarked) [41b] | 103 | 0.363 | 0.4 | 86 | 14.1 | 2.06 | 0.486 | – | – | – | – |
| COC(=O)[C@@H]1C[C@H](OC(C)=O)C(=O)[C@@H]2[C@H]3C[C@@H](c4ccoc4)CC(=O)[C@@H]3CC[C@]21C [compound 1, O6C-20-nor-SalA] | 96 | – | – | 108 | – | 0.34 | – | – | – | – | – |
| COC(=O)[C@@H]1C[C@H](OC(C)=O)C(=O)[C@@H]2[C@H]3C[C@H](c4ccoc4)CC(=O)[C@@H]3CC[C@]21C [compound 18] | 91 | – | – | 91 | – | 0.23 | – | – | – | – | – |
| COC(=O)[C@@H]1C[C@H](OC(C)=O)C(=O)[C@@H]2[C@H]3C[C@@H](c4ccsc4)CC(=O)[C@@H]3CC[C@]21C [compound 19] | 101 | 1.48 | – | 105 | 72.4 | 1.11 | 0.898 | – | – | – | – |
| COC(=O)[C@@H]1C[C@H](OC(C)=O)C(=O)[C@@H]2[C@H]3C[C@@H](c4cccnc4)CC(=O)[C@@H]3CC[C@]21C [compound 20] | 105 | 468 | – | 88 | 2040 | 0.17 | 5.896 | – | – | – | – |
| COC(=O)[C@@H]1C[C@H](OC(C)=O)C(=O)[C@@H]2[C@H]3C[C@@H](c4ccncc4)CC(=O)[C@@H]3CC[C@]21C [compound 21] | 93 | 302 | – | 94 | 3310 | 0.23 | 4.409 | – | – | – | – |
| COC(=O)[C@@H]1C[C@H](OC(C)=O)C(=O)[C@@H]2[C@H]3C[C@@H](c4ccnc(OC)c4)CC(=O)[C@@H]3CC[C@]21C [compound 23] | – | – | 3390 | – | – | – | – | – | – | – | – |
| COC(=O)[C@@H]1C[C@H](OC(C)=O)C(=O)[C@@H]2[C@H]3C[C@@H](c4ccnc5ccccc45)CC(=O)[C@@H]3CC[C@]21C [compound 25] | 95 | 631 | – | – | – | – | – | – | – | – | – |
| COC(=O)[C@@H]1C[C@H](OC(C)=O)C(=O)[C@@H]2[C@H]3C[C@@H](c4coc5ccccc45)CC(=O)[C@@H]3CC[C@]21C [compound 26] | 104 | 41.7 | – | 100 | 2340 | 1.87 | 0.536 | – | – | – | – |
| COC(=O)[C@@H]1C[C@H](OC(C)=O)C(=O)[C@@H]2[C@H]3C[C@@H](c4c[nH]c5ccccc45)CC(=O)[C@@H]3CC[C@]21C [compound 27] | 92 | 331 | – | 14 | 2040 | 3.96 | 0.252 | – | – | – | – |
| COC(=O)[C@@H]1C[C@H](OC(C)=O)C(=O)[C@@H]2[C@H]3C[C@@H](c4ccc(C)cc4)CC(=O)[C@@H]3CC[C@]21C [compound 28] | 93 | 398 | – | 14 | 1860 | 3.88 | 0.258 | – | – | – | – |
| COC(=O)[C@@H]1C[C@H](OC(C)=O)C(=O)[C@@H]2[C@H]3C[C@@H](c4ccc(Cl)cc4)CC(=O)[C@@H]3CC[C@]21C [compound 29] | 103 | 67.6 | – | 51 | 851 | 3.16 | 0.316 | – | – | – | – |
| COC(=O)[C@@H]1C[C@H](OC(C)=O)C(=O)[C@@H]2[C@H]3C[C@@H](c4cccc(C)c4)CC(=O)[C@@H]3CC[C@]21C [compound 30] | 105 | 14.5 | 15 | 115 | 794 | 1.26 | 0.797 | – | – | – | – |
| COC(=O)[C@@H]1C[C@H](OC(C)=O)C(=O)[C@@H]2[C@H]3C[C@@H](c4cccc(Cl)c4)CC(=O)[C@@H]3CC[C@]21C [compound 31] | 103 | 4.27 | 4.2 | 123 | 631 | 2.50 | 0.399 | – | – | – | – |
| COC(=O)[C@@H]1C[C@H](OC(C)=O)C(=O)[C@@H]2[C@H]3C[C@@H](C4=CCCCC4)CC(=O)[C@@H]3CC[C@]21C [compound 32] | – | – | 0.3 | – | – | – | – | – | – | 20 | – |
| COC(=O)[C@@H]1C[C@H](OC(C)=O)C(=O)[C@@H]2[C@H]3C[C@@H](Sc4ccccc4)CC(=O)[C@@H]3CC[C@]21C [compound 33] | 92 | – | 96 | 131 | 4270 | 0.51 | 1.946 | – | – | – | – |
| COC(=O)[C@@H]1C[C@H](OC(C)=O)C(=O)[C@@H]2[C@H]3C[C@@H](c4ccccc4)CC(=O)N[C@@H]3CC[C@]21C [compound 35] | 107 | – | 46 | 67 | 1820 | 5.48 | 0.182 | – | – | – | – |
| COC(=O)C1CC(OC(C)=O)C(=O)C2C3CC(c4ccoc4)CC(=NO)C3CCC12C (centres unmarked) [compound 36] | 105 | 0.347 | 0.4 | 83 | 12.9 | 2.66 | 0.375 | – | – | – | – |
| COC(=O)C1CC(OC(C)=O)C(=O)C2C3CC(c4ccccc4)CC(=NO)C3CCC12C (centres unmarked) [compound 37] | 105 | 0.417 | 0.4 | 80 | 42.7 | 8.60 and 7.4–9.8 | 0.116 | – | – | – | high selectivity for KOR over MOR was also preserved |
| CON=C1CC(c2ccccc2)CC2C1CCC1(C)C(C(=O)OC)CC(OC(C)=O)C(=O)C21 (centres unmarked) [compound 38] | 100 | 2.95 | – | 98 | 245 | 2.28 | 0.439 | – | – | – | – |
| COC(=O)C1CC(OC(C)=O)C(=O)C2C3CC(c4ccccc4)CC(=NOC(C)=O)C3CCC12C (centres unmarked) [compound 39] | 105 | 1.26 | – | 83 | 97.7 | 5.43 | 0.184 | – | – | – | – |
